Source: PMC9822940, “Antiplasmodial activity, structure–activity relationship and studies on the action of novel benzimidazole derivatives” (Scientific Reports, 2023)
pIC50: −log10 of the molar value. Several values for one entry are separate records, joined by “and”; a condition that tells them apart may be missing. Equal values may be shown once. Read-outs that look alike come from different tables or passages of the source.

Tests used:
[1] = tested on: Vero cells; assay: Cytotoxicity on epithelial Vero cell cultures; format: cell-based; conditions: Vero cells
Description: (§1) In vitro activity of BZ. All BZ derivatives were tested at 10 μM against the HB3 strain of Pf, and for those compounds with a percentage of growth inhibition (% GI) higher than 50%, the IC50 values were determined. In addition, their cytotoxicity on epithelial Vero cell cultures was evaluated to calculate their selectivity indexes (SI), Table 1. An index of 10 or above is expected for a lead compound.

[2] = tested on: P. falciparum HB3 strain; assay: Antiplasmodial activity against P. falciparum HB3 strain in culture; format: cell-based, Plasmodium falciparum; conditions: for SI (selectivity index): Vero CC50 versus HB3 IC50
Description: as §1
(§2) The chloroquine-sensitive […] and chloroquine-resistance 7G8 strain […] of P. falciparum were used throughout. Infected erythrocytes were kept in culture using the protocol established by Haynes et al.[44], basically utilizing human O^+ erythrocytes kept in an RPMI medium supplemented with glutamine and 10% human serum incubated in an atmosphere of 90% N2, 5% O2 and 5% CO2.

[3] = tested on: 7G8 P. falciparum parasites; assay: Antiplasmodial activity against chloroquine-resistant 7G8 P. falciparum; format: cell-based, Plasmodium falciparum; conditions: for pIC50: Plasmodium falciparum
From the text: The mechanism used by Pf to prevent intoxication with free heme once hemoglobin is degraded is to form hemozoin crystals that capture heme. Mefloquine and other common antimalarials interfere with this pathway, resulting in the death of the parasite.
as §2

[4] = Cytotoxicity on epithelial Vero cell cultures; format: cell-based; conditions: African green monkey, epithelial Vero cells
Description: as §1

[5] = tested on: P. falciparum-infected cultures; assay: Intracellular reactive oxygen species (ROS) production in P. falciparum; format: cell-based, Plasmodium falciparum; conditions: 1 µM; 0.5, 6 and 9 h
Description: Also, the intracellular production of oxygen reactive species (ROS) was monitored for the same antiplasmodial compounds. The level of ROS production was compared between the samples and that of the untreated parasites. […] This would point to the conformation of such molecules targeting a specific molecule or process of the parasite.  Figure 4 Effect of selected benzimidazole derivatives on ROS production. Five potent compounds were incubated with P. falciparum-infected cultures and the production of reactive oxygen species was measured through fluorometry at 0.5, 6 and 9 h after their addition at 1 µM. As positive control, a sample containing hydrogen peroxide at 200 μM was added. Samples were measured in triplicates. One-way ANOVA with Turkey´s comparison was used to measure significance with respect to the untreated control at each different time point. n = 2. (a) BZ 1, (b) BZ 5, (c) BZ 16, (d) BZ 26 and (e) BZ 33. *p < 0.05, **p < 0.01, ***p < 0.005. Intracellular ROS formation was measured in a fluorimeter using the CM-H2DCFDA reactive dye from Molecular Probes® (Eugene OR, USA). Hydrogen peroxide was used as a positive control at a final concentration of 200 µM. The level of ROS present was inferred through the amount of oxidized DCF[45].

[6] = tested on: plasma membrane of parasite culture / erythrocytes; assay: Propidium iodide incorporation assay (membrane integrity); format: cell-based, Plasmodium falciparum; conditions: 3 h incubation, fluorometry
Description: The integrity of the plasma membrane under the action of certain antiplasmodial compounds was assessed through the use of two methodologies. First, the absorption of propidium iodide, to which intact membranes are impermeable, was measured. Second, the presence of heme in the culture media, which indicates a leakage of the contents of the erythrocyte or its complete lysis (hemolysis), was analyzed.
Figure 3 Membrane integrity tests. BZ 1, 5, 16, 26 and 33 were tested in triplicates in two independent experiments. (a) Incorporation of propidium iodide (PI) was analyzed through fluorometry after 3 h incubation with the compounds. (b) Hemolysis was measured by light absorbance 24 h after exposure to the compounds. One-way ANOVA with Turkey´s comparison was used for analysis of significance. ****p < 0.001.
Manufacturer’s instructions (BD PharmingenTM) were followed. Briefly, 200 µL of parasite culture at 2% parasitemia or uninfected erythrocytes, at 2% hematocrit, were incubated with each compound for 3 h at 37 °C. Untreated samples were cultured in the same plate. After incubation, 2 µL of Propidium Iodide was added and incubated for 15 min at RT while protected from light. Fluorescence was read in a fluorometer at excitation and emission wavelengths of 485/20 and 645/40 nm, respectively.

[7] = HB3 strain (chloroquine-sensitive), read-out: IC50
[8] = Plasmodium falciparum, HB3 strain (chloroquine-sensitive), read-out: IC50
[9] = Plasmodium falciparum, at 10 μM, HB3 strain, read-out: GI (growth inhibition percentage)

| Compound | GI (growth inhibition percentage) ([2]; at 10 μM, HB3 strain) | CC50 [4] | pIC50 [2, 8] | inhibition at 10 µM [2, 9] | also measured |
| --- | --- | --- | --- | --- | --- |
| COc1ccc2[nH]c(NC(=O)c3ccc(-c4ccccc4)cn3)nc2c1 [BZ 28] | 72.7% | – | – | – | CC50 [1]: 14.6 µM; pIC50 [2, 7]: 5.36 |
| O=C(Nc1nc2cc(Cl)ccc2[nH]1)c1nccc2ccccc12 [BZ 23] | 53.7% | – | – | – | – |
| COc1ccc2[nH]c(NC(=O)c3ccccn3)nc2c1 [BZ 25] | 50.9% | – | – | – | – |
| CCN(CC)CCCC(C)Nc1ccnc2cc(Cl)ccc12 (centres unmarked) [Chloroquine, reference compound] | – | – | – | – | pIC50 ([3]; 7G8, read-out: 7G8 Pf IC50): 6.64; pIC50 ([2]; Plasmodium falciparum, HB3): 7.55; inhibition at 10 µM ([2]; Plasmodium falciparum, HB3, read-out: GI (growth inhibition percentage)): 100% |
| Cc1ccc2[nH]c(NC(=O)c3ccncc3)nc2c1 [BZ 3] | inactive and 0.0% | – | – | – | – |
| CCCCc1ccc(C(=O)Nc2nc3cc(OC)ccc3[nH]2)nc1 [BZ 27, 5-Butyl-N-(5-methoxy-1H-benzimidazol-2-yl)picolinamide] | – | 8.5 µM | 5.92 | 100% | melting point: 129 °C; SI (selectivity index) [2]: 7.4 |
| O=C(Nc1nc2cc(Cl)c(Cl)cc2[nH]1)c1ccccn1 [BZ 36, N-(5,6-Dichloro-1H-benzimidazol-2-yl)picolinamide] | – | 11.8 µM | 5.62 | 81.9% | melting point: 281 °C; SI (selectivity index) [2]: 5.0 |
| Cc1cccnc1C(=O)Nc1nc2cc(Cl)ccc2[nH]1 [BZ 13, N-(5-Chloro-1H-benzimidazol-2-yl)-3-methylpicolinamide] | – | 8.6 µM | 5.55 | 87.3% | melting point: 180 °C; SI (selectivity index) [2]: 3.0 |
| O=C(Nc1nc2cc(Cl)ccc2[nH]1)c1cnc2ccccc2c1 [BZ 21] | 0.0% | – | – | – | – |
| Cc1ccc2[nH]c(NC(=O)c3ncccc3C)nc2c1 [BZ 4, 3-Methyl-N-(5-methyl-1H-benzimidazol-2-yl)picolinamide] | – | 6.8 µM | 5.60 | 92.4% | melting point: 173 °C; SI (selectivity index) [2]: 2.8 |
| CCCCc1ccc(C(=O)Nc2nc3cc(C)c(C)cc3[nH]2)nc1 [BZ 34] | 74.2% | – | – | – | CC50 [1]: 3.2 µM; pIC50 [2, 7]: 5.47 |
| COc1ccc2nc(C(=O)Nc3nc4cc(Cl)ccc4[nH]3)ccc2c1 [BZ 24] | 22.3% | – | – | – | – |
| COc1ccnc(C(=O)Nc2nc3cc(Cl)ccc3[nH]2)c1 [BZ 15, N-(5-Chloro-1H-benzimidazol-2-yl)-4-methoxypicolinamide] | – | 2 µM | 5.82 | 89.8% | melting point: 245 °C; SI (selectivity index) [2]: 1.4 |
| O=C(Nc1nc2cc(Cl)ccc2[nH]1)c1ccc2ccccc2n1 [BZ 20] | 25.9% | – | – | – | – |
| CCCCCCCCC(N)C(=O)Nc1ccc2[nH]c(NC(=O)c3ccccn3)nc2c1 (centres unmarked) [BZ 32] | – | – | – | – | CC50 [1]: 16.4 µM; pIC50 [2, 7]: 5.17 |
| Cc1ccc(C(=O)Nc2nc3cc(C)ccc3[nH]2)nc1 [BZ 5, 5-Methyl-N-(5-methyl-1H-benzimidazol-2-yl)picolinamide] | – | 4.5 µM | 5.82 | 100% | Intracellular ROS production versus untreated parasites [5]: no significant difference at any point; Membrane integrity: incorporation of propidium iodide [6]: some permeation in the membrane, although not significant; melting point: 256 °C |

| Compound | GI (growth inhibition percentage) ([2]; at 10 μM, HB3 strain) | CC50 [4] | pIC50 [2, 8] | inhibition at 10 µM [2, 9] | also measured |
| --- | --- | --- | --- | --- | --- |
| CCCCCCCCC(NC(=O)OC(C)(C)C)C(=O)Nc1ccc2[nH]c(NC(=O)c3ccccn3)nc2c1 (centres unmarked) [BZ 31] | – | – | – | – | CC50 [1]: 26.8 µM; pIC50 [2, 7]: 5.07 |
| Cc1cc2nc(NC(=O)c3ccc(-c4ccccc4)cn3)[nH]c2cc1C [BZ 35] | 64.7% | – | – | – | CC50 [1]: 9.7 µM; pIC50 [2, 7]: 5.14 |
| Cc1ccc2[nH]c(NC(=O)c3ccc(C#N)cn3)nc2c1 [BZ 8] | inactive and 37.4% | – | – | – | – |
| Cc1ccc2[nH]c(NC(=O)c3ccc4ccccc4n3)nc2c1 [BZ 9] | 73.1% | – | – | – | CC50 [1]: 63 µM; pIC50 [2, 7]: 4.85 |
| CCCCc1ccc(C(=O)Nc2nc3cc(C)ccc3[nH]2)nc1 [BZ 6, 5-Butyl-N-(5-methyl-1H-benzimidazol-2-yl)picolinamide] | – | 6.6 µM | 5.62 | 90.9% | melting point: 245 °C; SI (selectivity index) [2]: 2.7 |
| O=C(Nc1nc2cc([N+](=O)[O-])ccc2[nH]1)c1ccccn1 [BZ 29] | 96.0% | – | – | – | CC50 [1]: 13.9 µM; pIC50 [2, 7]: 5.29 |
| Cc1ccc2[nH]c(NC(=O)c3ccc(-c4ccccc4)cn3)nc2c1 [BZ 7] | 57.5% | – | – | – | CC50 [1]: 19.5 µM; pIC50 [2, 7]: 5.11 |
| Cc1ccc2[nH]c(NC(=O)c3nccc4ccccc34)nc2c1 [BZ 11] | 0.0% | – | – | – | – |
| Cc1ccc2[nH]c(NC(=O)c3cccnc3)nc2c1 [BZ 2] | inactive and 0.0% | – | – | – | – |
| O=C(Nc1nc2cc(Cl)ccc2[nH]1)c1ccc(-c2ccccc2)cn1 [BZ 18, N-(5-Chloro-1H-benzimidazol-2-yl)-5-phenylpicolinamide] | – | 0.6 µM | 5.64 | 99.2% | melting point: 214 °C; SI (selectivity index) [2]: 0.3 |
| Cc1cccc(C(=O)Nc2nc3cc(Cl)ccc3[nH]2)n1 [BZ 19] | inactive and 28.0% | – | – | – | – |
| O=C(Nc1nc2cc(Cl)ccc2[nH]1)c1ccccn1 [BZ 12, N-(5-chloro-1H-benzimidazol-2-yl)picolinamide] | – | 15.4 µM | 5.74 | 91.4% | pIC50 ([3]; 7G8 strain (chloroquine-resistant), read-out: 7G8 Pf IC50): 5.44; SI (selectivity index) ([3]; Vero CC50 versus 7G8 IC50): 4.2; SI (selectivity index) [2]: 8.7 |
| Cc1ccc2[nH]c(NC(=O)c3ccnc4ccccc34)nc2c1 [BZ 10] | 60.5% | – | – | – | – |
| O=C(Nc1nc2cc(Cl)ccc2[nH]1)c1ccnc2ccccc12 [BZ 22, N-(5-Chloro-1H-benzimidazol-2-yl)quinoline-4-carboxamide] | – | 16.1 µM | 5.64 | 88.9% | melting point: 262 °C; SI (selectivity index) [2]: 6.9 |
| O=C(Nc1nc2cc(Cl)ccc2[nH]1)c1ncccc1Cl [BZ 14] | 11.9% | – | – | – | – |
| CCCCc1ccc(C(=O)Nc2nc3cc(Cl)ccc3[nH]2)nc1 [BZ 17] | 89.7% | – | – | – | CC50 [1]: 3.4 µM; pIC50 [2, 7]: 5.46 |
